Each compound was assayed against human TRPA1 (Homo sapiens (Human), UniProt O75762) (assay: In vitro inhibition of human TRPA1, whole cell patch configuration). Conditions: current activation 10 μM AITC, tested concentrations 320 pM to 3.2 μM, read-out: hTRPA1 IC50.
Format: cell-based
Outline: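 Compound antagonism measured from voltage ramps (±100 or ±80 mV, 400 ms, every 4 s from −40 mV), analysed at −80 and 80 mV, or at constant −60 mV. HEPES-buffered NaCl bath, pH 7.4, EGTA or 2 mM Ca2+; temperature set by perfusion, within ±2° C; no junction-potential correction.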

Sequence of human TRPA1 (O75762 whole entry): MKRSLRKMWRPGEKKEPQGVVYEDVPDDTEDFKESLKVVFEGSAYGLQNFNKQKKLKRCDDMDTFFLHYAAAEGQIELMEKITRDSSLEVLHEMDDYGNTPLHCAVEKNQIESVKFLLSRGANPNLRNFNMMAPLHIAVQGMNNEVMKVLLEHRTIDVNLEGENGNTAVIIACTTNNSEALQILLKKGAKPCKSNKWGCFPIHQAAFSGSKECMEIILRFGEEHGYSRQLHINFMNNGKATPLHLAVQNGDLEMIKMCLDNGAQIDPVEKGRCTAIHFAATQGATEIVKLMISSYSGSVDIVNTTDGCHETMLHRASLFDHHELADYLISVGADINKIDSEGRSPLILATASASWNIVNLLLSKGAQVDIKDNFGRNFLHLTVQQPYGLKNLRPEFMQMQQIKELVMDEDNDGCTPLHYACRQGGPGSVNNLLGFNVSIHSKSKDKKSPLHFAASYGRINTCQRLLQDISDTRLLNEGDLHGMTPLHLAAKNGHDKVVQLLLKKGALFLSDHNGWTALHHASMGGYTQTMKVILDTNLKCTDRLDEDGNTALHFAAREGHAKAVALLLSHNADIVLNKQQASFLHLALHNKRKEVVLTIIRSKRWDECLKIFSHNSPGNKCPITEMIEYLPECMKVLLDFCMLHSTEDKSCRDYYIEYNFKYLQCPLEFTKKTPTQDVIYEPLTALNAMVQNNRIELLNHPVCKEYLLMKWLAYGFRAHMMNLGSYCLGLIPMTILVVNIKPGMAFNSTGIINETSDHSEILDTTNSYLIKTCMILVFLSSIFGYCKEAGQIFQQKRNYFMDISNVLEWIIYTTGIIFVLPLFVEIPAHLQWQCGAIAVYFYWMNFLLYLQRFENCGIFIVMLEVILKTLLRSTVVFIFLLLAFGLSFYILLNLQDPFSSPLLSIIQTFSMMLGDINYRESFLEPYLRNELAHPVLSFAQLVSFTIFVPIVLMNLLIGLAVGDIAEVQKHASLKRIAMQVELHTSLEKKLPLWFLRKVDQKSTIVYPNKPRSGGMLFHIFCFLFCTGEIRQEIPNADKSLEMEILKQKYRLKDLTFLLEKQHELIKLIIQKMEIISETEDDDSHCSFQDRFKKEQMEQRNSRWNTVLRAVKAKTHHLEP

IC50 [nM] | SMILES
5 | CCC(=O)Cn1c(=O)c2c(ncn2[C@@H](C)C(=O)Nc2cccc(-c3ccc(N4CC5C(C4)C5(F)F)nc3)n2)n(C)c1=O (stereo partly drawn) [Compound 68, (2S)—N-(6′-(6,6-difluoro-3-azabicyclo[3.1.0]hexan-3-yl)-[2,3′-bipyridin]-6-yl)-2-(3-methyl-2,6-dioxo-1-(2-oxobutyl)-2,3-dihydro-1H-purin-7(6H)-yl)propanamide]
7 | CC(=O)Cn1c(=O)c2c(ncn2[C@@H](C)C(=O)Nc2ccnc(-c3ccc(N4CC5C(C4)C5(F)F)nc3)n2)n(C)c1=O (stereo partly drawn) [Compound 69, (2S)—N-(2-(6-(6,6-difluoro-3-azabicyclo[3.1.0]hexan-3-yl)pyridin-3-yl)pyrimidin-4-yl)-2-(3-methyl-2,6-dioxo-1-(2-oxopropyl)-2,3-dihydro-1H-purin-7(6H)-yl)propanamide]
5 | CCC(=O)Cn1c(=O)c2c(ncn2[C@@H](C)C(=O)Nc2ccnc(-c3ccc(N4CC5C(C4)C5(F)F)nc3)n2)n(C)c1=O (stereo partly drawn) [Compound 70, (2S)—N-(2-(6-(6,6-difluoro-3-azabicyclo[3.1.0]hexan-3-yl)pyridin-3-yl)pyrimidin-4-yl)-2-(3-methyl-2,6-dioxo-1-(2-oxobutyl)-2,3-dihydro-1H-purin-7(6H)-yl)propanamide]
44 | CNC(=O)Cn1c(=O)c2c(ncn2[C@@H](C)C(=O)Nc2csc(-c3cnc(N4CC5CC5C4)nc3)n2)n(C)c1=O (stereo partly drawn) [Compound 71, (2S)—N-(2-(2-(3-azabicyclo[3.1.0]hexan-3-yl)pyrimidin-5-yl)thiazol-4-yl)-2-(3-methyl-1-(2-(methylamino)-2-oxoethyl)-2,6-dioxo-2,3-dihydro-1H-purin-7(6H)-yl)propanamide]
3 | CCC(=O)Cn1c(=O)c2c(ncn2[C@@H](C)C(=O)Nc2cncc(-c3cnc(N4CC5C(C4)C5(F)F)nc3)n2)n(C)c1=O (stereo partly drawn) [Compound 75, (2S)—N-(6-(2-(6,6-difluoro-3-azabicyclo[3.1.0]hexan-3-yl)pyrimidin-5-yl)pyrazin-2-yl)-2-(3-methyl-2,6-dioxo-1-(2-oxobutyl)-2,3-dihydro-1H-purin-7(6H)-yl)propanamide]
10 | CC(=O)Cn1c(=O)c2c(ncn2[C@@H](C)C(=O)Nc2cncc(-c3ccc(N4CC5C(C4)C5(F)F)nc3)n2)n(C)c1=O (stereo partly drawn) [Compound 76, (2S)—N-(6-(6-(6,6-difluoro-3-azabicyclo[3.1.0]hexan-3-yl)pyridin-3-yl)pyrazin-2-yl)-2-(3-methyl-2,6-dioxo-1-(2-oxopropyl)-2,3-dihydro-1H-purin-7(6H)-yl)propanamide]
2 | C[C@@H](C(=O)Nc1cncc(-c2ccc(N3CC4C(C3)C4(F)F)nc2)n1)n1cnc2c1c(=O)n(CC#N)c(=O)n2C (some centres unmarked) [Compound 77]
86 | Cc1cc(Cn2c(=O)c3c(ncn3[C@@H](C)C(=O)Nc3cccc(-c4noc(C(F)(F)F)n4)n3)n(C)c2=O)no1 [Compound 78]
1 | CCC(=O)Cn1c(=O)c2c(ncn2[C@@H](C)C(=O)Nc2csc(-c3ccc(N4CC5C(C4)C5(F)F)nc3)n2)n(C)c1=O (stereo partly drawn) [Compound 80, (2S)—N-(2-(6-(6,6-difluoro-3-azabicyclo[3.1.0]hexan-3-yl)pyridin-3-yl)thiazol-4-yl)-2-(3-methyl-2,6-dioxo-1-(2-oxobutyl)-2,3-dihydro-1H-purin-7(6H)-yl)propanamide]
10 | CC(=O)Cn1c(=O)c2c(ncn2[C@@H](C)C(=O)Nc2csc(-c3cnc(C)c(Cl)c3)n2)n(C)c1=O [Compound 81, (S)—N-(2-(5-chloro-6-methylpyridin-3-yl)thiazol-4-yl)-2-(3-methyl-2,6-dioxo-1-(2-oxopropyl)-2,3-dihydro-1H-purin-7(6H)-yl)propanamide]
5 | CC(=O)Cn1c(=O)c2c(ncn2[C@@H](C)C(=O)Nc2csc(-c3cnc(C(F)(F)F)c(C)c3)n2)n(C)c1=O [Compound 82, (S)-2-(3-methyl-2,6-dioxo-1-(2-oxopropyl)-2,3-dihydro-1H-purin-7(6H)-yl)-N-(2-(5-methyl-6-(trifluoromethyl)pyridin-3-yl)thiazol-4-yl)propanamide]
2 | CCC(=O)Cn1c(=O)c2c(ncn2[C@@H](C)C(=O)Nc2csc(-c3cnc(C(F)(F)F)c(C)c3)n2)n(C)c1=O [Compound 83, (S)-2-(3-methyl-2,6-dioxo-1-(2-oxobutyl)-2,3-dihydro-1H-purin-7(6H)-yl)-N-(2-(5-methyl-6-(trifluoromethyl)pyridin-3-yl)thiazol-4-yl)propanamide]
4 | CCC(=O)Cn1c(=O)c2c(ncn2[C@@H](C)C(=O)Nc2cncc(-c3ccc(N4CC5C(C4)C5(F)F)nc3)n2)n(C)c1=O (stereo partly drawn) [Compound 84, (2S)—N-(6-(6-(6,6-difluoro-3-azabicyclo[3.1.0]hexan-3-yl)pyridin-3-yl)pyrazin-2-yl)-2-(3-methyl-2,6-dioxo-1-(2-oxobutyl)-2,3-dihydro-1H-purin-7(6H)-yl)propanamide]
3 | Cc1cc(Cn2c(=O)c3c(ncn3[C@@H](C)C(=O)Nc3ccnc(-c4cnc(C(F)(F)F)c(C)c4)n3)n(C)c2=O)no1 [Compound 85, (S)-2-(3-methyl-1-((5-methylisoxazol-3-yl)methyl)-2,6-dioxo-2,3-dihydro-1H-purin-7(6H)-yl)-N-(2-(5-methyl-6-(trifluoromethyl)pyridin-3-yl)pyrimidin-4-yl)propanamide]
258 | CNC(=O)Cn1c(=O)c2c(ncn2[C@@H](C)C(=O)Nc2cccc(-c3cnc(C(F)(F)F)nc3)n2)n(C)c1=O [Compound 87, (S)-2-(3-methyl-1-(2-(methylamino)-2-oxoethyl)-2,6-dioxo-2,3-dihydro-1H-purin-7(6H)-yl)-N-(6-(2-(trifluoromethyl)pyrimidin-5-yl)pyridin-2-yl)propanamide]
894 | C[C@@H](C(=O)Nc1cccc(-c2cnc(C(F)(F)F)nc2)n1)n1cnc2c1c(=O)n(CC1CCO1)c(=O)n2C (stereo partly drawn) [Compound 88, (2S)-2-(3-methyl-1-(oxetan-2-ylmethyl)-2,6-dioxo-2,3-dihydro-1H-purin-7(6H)-yl)-N-(6-(2-(trifluoromethyl)pyrimidin-5-yl)pyridin-2-yl)propanamide]
3 | CCC(=O)Cn1c(=O)c2c(ncn2[C@@H](C)C(=O)Nc2csc(-c3cnc(C)c(Cl)c3)n2)n(C)c1=O [Compound 90]
2 | Cc1cc(Cn2c(=O)c3c(ncn3[C@@H](C)C(=O)Nc3csc(-c4cnc(C)c(Cl)c4)n3)n(C)c2=O)no1 [Compound 91]
33 | CC(=O)Cn1c(=O)c2c(ncn2[C@@H](C)C(=O)Nc2csc(-c3cnc(C)c(F)c3)n2)n(C)c1=O [Compound 92, (S)—N-(2-(5-fluoro-6-methylpyridin-3-yl)thiazol-4-yl)-2-(3-methyl-2,6-dioxo-1-(2-oxopropyl)-2,3-dihydro-1H-purin-7(6H)-yl)propanamide]
> 3200 | Cc1cc(Cn2c(=O)c3c(ncn3[C@@H](C)C(=O)Nc3cccc(-c4nc(=O)o[nH]4)n3)n(C)c2=O)no1 [Compound 93, (S)-2-(3-methyl-1-((5-methylisoxazol-3-yl)methyl)-2,6-dioxo-2,3-dihydro-1H-purin-7(6H)-yl)-N-(6-(5-oxo-2,5-dihydro-1,2,4-oxadiazol-3-yl)pyridin-2-yl)propanamide]

Source: patent publication US10221177B2 (HYDRA BIOSCIENCES, INC., priority 2014, dated 2019)
